In patent US10933049B2, “Mobilizing agents and uses therefor” (The University of Queensland, priority 2015, dated 2021):
“Also recorded” adds a separate entry of the source.

Assays:
[1] = tested on: B16 melanoma; test: B16 melanoma growth and survival in mice; assay type: in vivo; conditions: for survival (time until tumors reach maximal size): C3aRA vs vehicle
Experimental: (§1) WT or C3aR^−/− mice were injected subcutaneously (s.c.) with B16-F0 melanoma (2.5×10^5 cells/mouse) or MC38 colon carcinoma (1×10^6 cells/mouse); female BALB/c mice were injected into the mammary fat pad with 4T1 mammary carcinoma (5×10^5 cells/mouse). Tumor growth was monitored daily from day 5 after tumor cell injection. For some experiments, C57BL/63 mice received daily injections of either C3aR antagonist (SB290157; VDM Biochemicals, Bedford Heights, Ohio; diluted in saline, 1 mg/kg/day i.p.,), C5aR antagonist (PMX53; produced in-house; 1 mg/kg/day) or vehicle only (0.9% saline or 5% glucose solution) control, commencing once tumors became palpable (approx. day 7 after tumor cell injection). For most experiments, mice were euthanized at day 14 (or once the largest tumor reached an area of approx. 200 mm^2), blood was collected by cardiac puncture, tumors, spleen, draining lymph nodes (inguinal, axillary and brachial) and femurs excised for FACS or immunostaining; tumors were weighed. For ‘survival’ studies, the time taken for each tumor to reach a pre-determined size (150 mm^2) was recorded, then mice euthanized.

[2] = tested on: leukocyte populations; test: Flow cytometric analysis of leukocyte populations in B16 tumor-bearing mice; assay type: in vivo; conditions: vs vehicle
Experimental: as §1
Single cell suspensions of blood, tumor, spleen and lymph node and bone marrow cell were prepared for surface staining with antibodies to mouse CD45, F4/80, CD11b, Ly6G, Gr-1, CD3, CD4, CD8a (all from Biolegend, San Diego, Calif.). Staining for Tregs was carried out using a FoxP3 Fix/Perm kit (BioLegend), according to manufacturer's instructions. For Th1, Th2, Th17 staining, cells were stimulated with phorbol 12-myristate 13-acetate (PMA; 50 ng/ml; Sigma) and ionomycin (1 μM; Sigma) in the presence of Brefeldin A (5 μg/ml; BioLegend) for 4 h at 37° C. After surface staining, cells were fixed and permeabilized for staining of intracellular cytokines; IL-4, IL-17A or IFN-γ (all from BioLegend). Flow cytometry was performed using an Accuri C6 flow cytometer (BD Biosciences) and data analysis with FlowJo software (Tree Star, Inc., Ashland, Oreg.). Details are provided in Supplemental Experimental Procedures.

[3] = tested on: 4T1 mammary carcinoma; test: 4T1 mammary carcinoma growth in BALB/c mice; assay type: in vivo; conditions: female BALB/c mice, 1 mg/kg/day i.p. from day 0, vs saline
Experimental: as §1, with “For some experiments, C57BL/63 mice received daily injections of either C3aR antagonist (SB290157; VDM Biochemicals, Bedford Heights, Ohio; diluted in saline, 1 mg/kg/day i.p.,), C5aR antagonist (PMX53; produced in-house; 1 mg/kg/day) or vehicle only (0.9% saline or 5% glucose solution) control, commencing once tumors became palpable (approx. day 7 after tumor cell injection).” left out

[4] = target: T1, C3aR (Mus musculus, UniProt O09047); test: Calcium mobilization in B16 cells; assay type: cell-based, murine; conditions: cultured B16 cells
T1 construct: endogenous in cells; host or cells: B16-F0 murine melanoma cells (ATCC CRL6322)
T1 sequence (O09047 1-477): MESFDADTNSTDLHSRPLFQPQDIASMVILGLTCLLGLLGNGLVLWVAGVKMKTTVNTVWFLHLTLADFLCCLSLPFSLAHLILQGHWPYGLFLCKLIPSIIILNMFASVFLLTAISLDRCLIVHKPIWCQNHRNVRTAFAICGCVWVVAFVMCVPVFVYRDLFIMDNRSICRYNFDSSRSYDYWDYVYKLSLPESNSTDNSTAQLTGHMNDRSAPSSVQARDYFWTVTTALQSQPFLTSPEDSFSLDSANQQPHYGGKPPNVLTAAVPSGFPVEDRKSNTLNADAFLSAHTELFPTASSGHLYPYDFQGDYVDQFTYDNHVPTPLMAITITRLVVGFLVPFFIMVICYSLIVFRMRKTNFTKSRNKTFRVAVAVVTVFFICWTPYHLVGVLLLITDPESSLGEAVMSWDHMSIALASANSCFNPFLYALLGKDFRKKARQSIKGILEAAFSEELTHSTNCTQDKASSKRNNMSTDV

[5] = tested on: ERK and AKT signaling pathways; test: Western analysis of ERK and AKT phosphorylation in B16 cells; assay type: cell-based, murine; conditions: cultured B16 cells, 0-60 min
Experimental: B16 cells were treated with recombinant human C3a (10 nM) or the selective mouse C3aR agonist WWGKKYRASKLGLAR [SEQ ID NO: 5] (Proctor et al., 2009; Wu et al., 2013) for the times indicated in the experiment. After treatment, crude protein extracts were obtained by disrupting the cells in RIPA lysis buffer. Samples were subjected to SDS-PAGE (Laemmli, 1970), then separated proteins electrotransferred (Towbin et al., 1979) to a PVDF membrane. Membranes were incubated with antibodies to anti-phospho-AKT, anti-total AKT (Cell Signaling, Danvers, Mass.), mouse anti-diphosphorylated ERK1/2 and rabbit anti-total ERK1/2 (Sigma-Aldrich) followed by fluorescently-labelled secondary antibodies (IR Dye 800CW-goat anti-mouse Ig and IR Dye 680LT anti-rabbit Ig; Li-Cor Biosciences). Immunoreactive bands were visualized by scanning on an Odyssey Imaging System (Li-Cor Biosciences) and the percentage phosphorylated protein relative to total protein determined using Odyssey V3.0 image analysis software.

[6] = tested on: B16 melanoma cells; test: B16 tumor cell proliferation; assay type: cell-based, murine
[7] = tested on: B16 melanoma cells; test: Cell migration assay (scratch) of B16 cells; assay type: cell-based, murine; conditions: 10^-6 mol/L, 24 hours
Experimental: Cells were seeded at confluence (2×10^5 cells/cm^2) into a 24 well plate, adhered overnight and then confluent monolayers scratched with a pipette tip before being treated for 24 hours with C3aR agonist (10^−6 mol/L); control wells were incubated with medium alone or containing 5% FCS. Migration was quantified by measuring cell-free areas at day 0 and 24 hours using Image-J software (NIH, Bethesda, Md., USA).

[8] = tested on: CD11b+Ly6G+ neutrophils; test: Neutrophil mobilization by G-CSF in wild-type and C3aR-/- mice; assay type: in vivo; conditions: 120 μg/kg i.v., 2 hours
Experimental: Wild-type, or C3aR^−/− mice were injected i.v. with G-CSF (Lenograstim; 120 μg/kg), or vehicle (saline). Blood was collected after 2 hours, and CD11b+Ly6G+ neutrophils analyzed using flow cytometry for CD11b+ and Ly6G+.

[9] = established B16 melanoma, C57BL/6J mice, 1 mg/kg/day i.p. from day 7, vs vehicle

In the case of PMX53, the “reduction in tumor growth observed in C3aR-/- mice” value ([1]; C3aR-/- mice, B16 melanoma, 1 mg/kg/day s.c. once tumors palpable) is reported as “not enhanced” and the melanoma growth ([1]; WT mice, B16 melanoma, 1 mg/kg/day s.c. once tumors palpable, vs vehicle) is reported as “inhibited melanoma growth”.

For `N=C(N)NCCC[C@H](NC(=O)COCC(c1ccccc1)c1ccccc1)C(=O)O` [SB290157, N^2-[(2,2-diphenylethoxy)acetyl]-1-arginine], the “survival (time until tumors reach maximal size)” value ([1]; B16 melanoma) was “significantly improved”, the “survival (time until tumors reach maximal size)” value ([1]; B16 melanoma, listed as C3aRA) was “increased survival” and the excised tumor weights ([1]; B16 melanoma, day 14, 1 mg/kg/day i.p. from day 7, vs vehicle) was “significantly smaller”. For the same molecule, the tumor area [1, 9] was “significantly smaller than in the vehicle-treated control group”, the tumor progression [1, 9] was “dramatically retarded” and the Tregs ([2]; blood) was “reduction”. For the same molecule, the neutrophils ([2]; blood) was “significant increase”, the MDSC ([2]; bone marrow) was “significantly lower” and the monocytes ([2]; bone marrow) was “significantly lower”. For the same molecule, the neutrophils ([2]; bone marrow) was “significantly lower”, the Th2 cells ([2]; draining lymph nodes) was “significantly increased” and the macrophages ([2]; draining lymph nodes) was “not significantly different”. For the same molecule, the monocytes ([2]; draining lymph nodes) was “not significantly different”, the neutrophils ([2]; draining lymph nodes) was “not significantly different” and the “percentage of CD4+ T lymphocytes” value ([2]; draining lymph nodes) was “significantly increased”. The “percentage of CD8+ T lymphocytes” value ([2]; draining lymph nodes) was “significantly increased”, the “CD4+ lymphocytes” value ([2]; spleen) was “significantly higher” and the MDSC ([2]; spleen) was “significantly lower”. For the same molecule, the Th2 cells ([2]; spleen) was “significant increases”, the Treg cells ([2]; spleen) was “significant increases” and the proportion of macrophages ([2]; spleen) was “not significantly altered”. The proportion of monocytes ([2]; spleen) was “not significantly altered”, the proportion of neutrophils ([2]; spleen) was “not significantly altered” and the total lymphocytes ([2]; spleen) was “significantly higher”. For the same molecule, the “percentage of CD4+ T lymphocytes” value ([2]; tumor tissue, 1 mg/kg/day) was “higher”, the “percentage of Th1 subset” value ([2]; tumor tissue, 1 mg/kg/day) was “significantly increased” and the “percentage of Th2 subset” value ([2]; tumor tissue, 1 mg/kg/day) was “significantly increased”. The “percentage of Th17 subset” value ([2]; tumor tissue, 1 mg/kg/day) was “significantly increased”, the “percentage of total T lymphocytes” value ([2]; tumor tissue, 1 mg/kg/day) was “higher” and the “percentage of tumor-infiltrating neutrophils” value ([2]; tumor tissue, 1 mg/kg/day) was “increased”. The “proportion of MDSC” value ([2]; tumor tissue, 1 mg/kg/day) was “not significantly altered”, the tumor-associated macrophages ([2]; tumor tissue, 1 mg/kg/day) was “reduced” and the tumor growth [3] was “significant inhibition of tumor growth”.

In the case of “WWGKKYRASKLGLAR (listed as Homo sapiens) [selective C3aR agonist]”, the calcium mobilization response [4] is reported as “failed to initiate a calcium mobilization response”, the “ERK and AKT signaling pathways” value [5] is reported as “activated” and the tumor cell proliferation [6] is reported as “no significant effect”. The cell migration [7] was “significantly increased”.

“recombinant human C3a: recombinant human C3a used to stimulate B16 cells” was tested, and the calcium mobilization response [4] was “failed to initiate a calcium mobilization response” and the “ERK and AKT signaling pathways” value [5] was “activated”.

B1: G-CSF: granulocyte-colony stimulating factor (Lenograstim), stem cell-mobilizing agent (protein, UniProt P09919 31-207, looked up)
Granulocyte …: TPLGPASSLPQSFLLKCLEQVRKIQGDGAALQEKLVSECATYKLCHPEELVLLGHSLGIPWAPLSSCPSQALQLAGCLSQLHSGLFLYQGLLQALEGISPELGPTLDTLQLDVADFATTIWQQMEELGMAPALQPTQGAMPAFASAFQRRAGGVLVASHLQSFLEVSYRVLRHLAQP
With B1 the “blood CD11b+Ly6G+ (anti-tumor) neutrophils in C3aR-/- mice compared with saline” value [8] was “significantly enhanced; also recorded: significant (P=0.0079) increase” and the “mobilization of blood neutrophils, C3aR-/- compared with wild-type mice” value [8] was “significantly (P=0.0056) greater mobilization of neutrophils”.
